Assay results taken from patent US10143642B2, “Sunscreen molecule and compositions thereof” (Conopco, Inc., priority 2013, dated 2018).

Experiment: Stability of sunscreen actives on HPTLC plates exposed to UV radiation (densitometry)
Assay type: physicochemical
Settings: HPTLC plate, densitometry scan at 357 nm; for % active, 0 hr: UV radiation 5.5 mW/cm^2, 0 hr exposure; for % active, 1 hr: UV radiation 5.5 mW/cm^2, 1 hr exposure; for % active, 2 hr: UV radiation 5.5 mW/cm^2, 2 hr exposure
Method: Sunscreen actives singly or as combinations as shown in Table-1 were checked for stability using the following procedure:
The method was based on spotting the HPTLC plates (in duplicate) with the sunscreen molecules of interest along with potential quencher molecules or formulations. The plate is then exposed to UV radiation (intensity 5.5 mW/cm^2) for 120 minutes. Following this the chromatographic separation was carried out using appropriate solvent system. Densitometry analysis is done to determine the amount of sunscreen degraded. Stock solutions were prepared in methanol following the ratios as mentioned in the following table. 14 μL of stock solutions were loaded (3 mm width; 16 mm separation) on a 10×10 cm F254 HPTLC plate, using CAMAG LINOMAT 5 applicator equipped with a 100 μL micro-syringe (Hamilton, Switzerland). Ascending chromatography was performed at a distance of 85 mm in a TLC chamber using n-hexane-ethyl acetate 9:1 (v/v) as the mobile phase (˜10 mL). The plates were dried at room temperature and subjected to ultraviolet absorption densitometry scan. The concentration dependent fluorescent bands due to presence of sunscreens were detected with a linear scan at 357 nm, using Camag TLC Scanner 3, in the presence of deuterium source. Slit width of 8×0.4 mm and scanning rate of 20 mm s^−1 were maintained during each densitometry scan. Concentrations of Parsol 1789 & the compound of present invention on each lane were determined from densitogram peak areas; prior and after the sun exposure using Win CATS Planar chromatography manager software.

SMILES | % active, 0 hr [%] | % active, 1 hr [%] | % active, 2 hr [%]
COc1ccc(/C(O)=C/C(=O)c2ccc(C(C)(C)C)cc2)cc1 [Example 1, Parsol 1789] | 100 | 28 | 5
COC(=O)CCC(C)C1CCC2C3C(OC(=O)COc4ccc(C(=O)/C=C(\O)c5ccc(C(C)(C)C)cc5)cc4)C[C@@H]4CC(OC(=O)C(C#N)=C(c5ccccc5)c5ccccc5)CCC4(C)C3CCC12C (stereo partly drawn) [Example 5, UVB & UVA modified methyl ester of chenodeoxy cholic acid] | 100 | 93 | 86
